{
  "source": "patent US5716627A",
  "about": "“Skin care compositions containing fatty acid amides, azoles, and retinol or retinyl ester” (Elizabeth Arden Co., Division of Conopco, Inc., priority 1996, dated 1998)",
  "key": {"Human keratinocytes": {"test_system": "Human keratinocytes", "test": "3H-thymidine incorporation by cultured keratinocytes (keratinocyte proliferation)", "type": "cell-based", "settings": "for activation at 0.0025 µM: 2.5×10^-9 M RA", "experimental": "Human keratinocytes, isolated from neonatal foreskin by trypsin treatment were grown in Dulbecco Modification Eagle (DME) Hams F12 (1:1) medium/10% fetal calf serum in the presence of irradiated 3T3 mouse fibroblasts for establishing dividing keratinocyte colonies. Cells were grown under the above condition until their second passage and kept frozen for future use. […] On day 7, when the cells were 80-90% confluent, they were trypsinized and plated in the serum-free medium for the various experiments.\nThe incorporation of ^3 H-thymidine by cultured keratinocytes was used as an assay of keratinocyte proliferation. Thymidine is one of four deoxynucleosides which are the monomeric units of DNA, the universal library of genetic information in the animal kingdom. Prior to cell division of a somatic cell such as a keratinocyte, the complete genome of the cell undergoing cell division is replicated. This involves large scale DNA synthesis by the cell and enables both daughter cells to receive identical copies of the genetic material. When ^3 H-thymidine is included in the culture media of keratinocytes which are synthesizing DNA in preparation for cell division then the labelled nucleoside is incorporated into the newly synthesized DNA. The extent of incorporation of ^3 H-thymidine into a population of cells is proportional to the rate of DNA synthesis by this population of cells and therefore an indication of their cellular proliferation.\nKeratinocytes (that were cultured as described above) were plated in 24 well plates at a density of 40,000 cells per well in 1 ml media. After incubation for four days or until the cells were 60-70% confluent, the media was changed. Test compounds were added (in triplicate) to the wells 24 hours after the media change, and four hours later 1 μCi ^3 H-Thymidine in 50 μl media was added per well. Cells were incubated for a further 24 hours. Media was removed from the cells, 10% ice cold trichloroacetic acid (TCA) added and plates were incubated on ice for 30 minutes. Cells were washed five times with 5% TCA and allowed to dissolve in 500 μl 0.1M NaOH for at least one hour (usually overnight). The preparations were neutralized with 0.1M HCl; 50 μl of the cell preparation was used to determine total protein content. Disintegrations per minute (DPM) from ^3 H labelling of DNA was determined by liquid scintillation counting of 900 μl of the cell preparation. Thymidine incorporation results were expressed as DPM/μg protein."}, "TGase I": {"test_system": "TGase I", "test": "Transglutaminase (TGase I) ELISA in cultured keratinocytes, normalized to DNA content (keratinocyte differentiation)", "type": "cell-based, human", "settings": "for Mean TGase/DNA X 10^-4 ± S.D.: n = 3; for mean TGase/DNA × 10^4 ± s.d: Table 3B", "experimental": "Human keratinocytes, isolated from neonatal foreskin by trypsin treatment were grown in Dulbecco Modification Eagle (DME) Hams F12 (1:1) medium/10% fetal calf serum in the presence of irradiated 3T3 mouse fibroblasts for establishing dividing keratinocyte colonies. Cells were grown under the above condition until their second passage and kept frozen for future use. Frozen second passage keratinocytes were thawed and plated into the above medium and grown for five days before they were switched to a serum-free MCDB 153-based medium keratinocyte growth medium (KGM) from Clonetics Corporation, San Diego, Calif., containing 0.15 mM Ca, or keratinocyte serum-free media (KSFM) from GIBCO containing 0.09 mM Ca). On day 7, when the cells were 80-90% confluent, they were trypsinized and plated in the serum-free medium for the various experiments.\nDuring the process of terminal differentiation in the epidermis, a 15 nm thick layer of protein, known as the cornified envelope (CE) is formed on the inner surface of the cell periphery. The CE is composed of numerous distinct proteins which have been cross-linked together by the formation of N^ε -(γ-glutamyl) lysine isodipeptide bonds catalyzed by the action of at least two different transglutaminases (TGases) expressed in the epidermis. TGase I is expressed in abundance in the differentiated layers of the epidermis, especially the granular layer, but is absent in the undifferentiated basal epidermis. Thus TGase I is a useful marker of epidermal keratinocyte differentiation with high TGase I levels indicating a more differentiated state. An ELISA based TGase I assay, using a TGase I antibody, was used to assess the state of differentiation of the cultured keratinocytes in the examples that follow.\nKeratinocytes (cultured as described above) were plated in 96 well plates at a density of 3,000 cells per well in 200 μl media. After incubation for four days the media was changed to media containing test compounds (six replicates per test). The cells were cultured for a further 72 hours after which time the media was aspirated and the plates stored at -70° C. Plates were removed from the freezer, and the cells washed with PBS. 100 μl sterile water was added and the cells were freeze fractured by freezing at -70° C. then thawing. The cells were incubated for one hour at room temperature (R/T) with PBS/3% BSA (wash buffer, bovine serum albumin), then rinsed with a fresh aliquot of wash buffer. Cells were incubated with 50 μl of primary antibodies monoclonal anti-human transglutaminase (IgG) obtained from Amersham (mouse) diluted 1:300 in wash buffer for one hour, 37° C. then rinsed two times with wash buffer. Cells were then incubated with 50 μl of secondary antibody (Feb fragment, peroxidase conjugated anti-mouse IgG obtained from Amersham) diluted 1:200 in wash buffer for one hour at 37° C., then rinsed two times with wash buffer. Cells were incubated with substrate solution (4 mg o-phenylene diamine and 3.3 μl 30% H2 O2 in 10 ml 0.1M citrate buffer pH 5.0) for five minutes, R/T, in darkness (under aluminum foil). The reaction was stopped by the addition of 50 μl 4N H2 SO4. The absorbance of samples was read at 492 nm in the plate reader. Out of the six replicates, four were treated with both antibodies, two were treated only with the secondary antibody (i.e., to determine background binding of enzyme conjugated Ab). TGase levels were determined by subtracting background from the readings from each treatment and determining mean ±s.d. for the replicates exposed to both Ab.\nThe level of TGase-1 detected after treatment of the cells could be influenced by cell number, i.e., the greater the number of cells the greater the level of TGase-1 detected. The level of TGase-1 was normalized to DNA content of the cells in the same well thus eliminating variation due to differences in cell number. […]"}, "[1]": {"settings": "Examples 1-4, overall conclusion"}},
  "note": "Entries after “also recorded” stand apart in the source; their conditions may differ. Like-named read-outs stand apart in the source and are kept apart here.",
  "data": [
    {"compound": "CC1=C(/C=C/C(C)=C/C=C/C(C)=C/C(=O)O)C(C)(C)CCC1", "note": "[RA, retinoic acid]", "values": [
      {"measurement": "effect on keratinocyte proliferation (in words)", "setting": "Human keratinocytes; Example 1, 2.5×10^-7 M, 2.5×10^-8 and 2.5×10^-9 M, vs ethanol control and retinol", "value": "significantly increased keratinocyte proliferation over both the ethanol control and each of the 2.5×10^-7 M, 2.5×10^-8 M and 2.5×10^-9 M retinol treatments; also recorded: dose dependant manner"},
      {"measurement": "effect on keratinocyte proliferation (in words)", "setting": "Human keratinocytes; [1]", "value": "increased keratinocyte proliferation"},
      {"measurement": "activity at 0.25 µM", "setting": "Human keratinocytes; Homo sapiens, Keratinocyte, 24 h, Table 1A, 2.5 × 10^-7 M, 24 hours, read-out: Thymidine incorporation (% control)", "value": 118, "unit": "%"},
      {"measurement": "activity at 0.025 µM", "setting": "Human keratinocytes; Homo sapiens, Keratinocyte, 24 h, Table 1A, 2.5 × 10^-8 M, 24 hours, read-out: Thymidine incorporation (% control)", "value": 128, "unit": "%"},
      {"measurement": "activity at 0.0025 µM", "setting": "Human keratinocytes; Homo sapiens, Keratinocyte, 24 h, Table 1A, 2.5 × 10^-9 M, 24 hours, read-out: Thymidine incorporation (% control)", "value": 122, "unit": "%"},
      {"measurement": "activity at 0.0025 µM", "setting": "Human keratinocytes; Homo sapiens, Keratinocyte, 24 h, Table 2A, 2.5 × 10^-9 M RA or ROH, with 10^-8 M LADEA and/or 10^-9 M Bifonazole where named, 24 hours, read-out: Thymidine incorporation (% control)", "value": 127, "unit": "%"},
      {"measurement": "activity at 0.25 µM", "setting": "Human keratinocytes; Homo sapiens, Keratinocyte, 24 h, Table 3A, RA at 2.5 × 10^7 M [sic], read-out: Thymidine incorporation (% control)", "value": 130, "unit": "%"},
      {"measurement": "activation at 0.0025 µM", "setting": "Human keratinocytes; Homo sapiens, Keratinocyte, read-out: increase in keratinocyte thymidine incorporation / proliferation over the ethanol control, Example 2, or 2.5×10^-9 M retinol+10^-8 M linoleamide-DEA+10^-9 M bifonazole", "value": 27, "unit": "%"},
      {"measurement": "activation at 0.25 µM", "setting": "Human keratinocytes; Homo sapiens, Keratinocyte, read-out: increase in keratinocyte thymidine incorporation / proliferation over the ethanol control, Example 3, 2.5×10^-7 M RA, or 2.5×10^-8 M retinol+10^-8 M linoleamide-DEA+10^-9 M climbazole", "value": 30, "unit": "%"},
      {"measurement": "activation at 0.0025 µM", "setting": "Human keratinocytes; Homo sapiens, Keratinocyte, read-out: increase in keratinocyte thymidine incorporation / proliferation over the ethanol control, Example 4, or 2.5×10^-9 M retinol+10^-8 M linoleamide-MEA+10^-8 M clotrimazole", "value": 28, "unit": "%"},
      {"measurement": "mean Thymidine incorp./μg protein ± s.d", "setting": "Human keratinocytes; Table 1A, 2.5 × 10^-7 M, 24 hours, n = 3", "value": "2475 ± 116", "unit": "DPM/μg protein"},
      {"measurement": "mean Thymidine incorp./μg protein ± s.d", "setting": "Human keratinocytes; Table 1A, 2.5 × 10^-8 M, 24 hours, n = 3", "value": "2686 ± 72", "unit": "DPM/μg protein"},
      {"measurement": "mean Thymidine incorp./μg protein ± s.d", "setting": "Human keratinocytes; Table 1A, 2.5 × 10^-9 M, 24 hours, n = 3", "value": "2556 ± 80", "unit": "DPM/μg protein"},
      {"measurement": "mean Thymidine incorp. μg protein ± s.d", "setting": "Human keratinocytes; Table 2A, 2.5 × 10^-9 M RA or ROH, with 10^-8 M LADEA and/or 10^-9 M Bifonazole where named, 24 hours, n = 3", "value": "5569 ± 248", "unit": "DPM/μg protein"},
      {"measurement": "mean Thymidine incorp/μg protein ± s.d", "setting": "Human keratinocytes; Table 3A, RA at 2.5 × 10^7 M [sic], n = 3", "value": "4845 ± 95", "unit": "DPM/μg protein"},
      {"measurement": "effect on transglutaminase level / keratinocyte differentiation (in words)", "setting": "TGase I; Example 1, 2.5×10^-7 M, 2.5×10^-8 M and 2.5×10^-9 M", "value": "decreased keratinocyte differentiation over both the ethanol control and each of the retinol treatments; also recorded: dose dependent"},
      {"measurement": "effect on keratinocyte TG1 level / differentiation (in words)", "setting": "TGase I; Example 2, 2.5×10^-8 M RA or retinol, 10^-8 M LAMEA, 10^-8 M bifonazole, 72 hour", "value": "very effective at repressing keratinocyte TG1 levels"},
      {"measurement": "effect on keratinocyte TG1 level / differentiation (in words)", "setting": "TGase I; Example 3, 2.5×10^-7 M RA, 2.5×10^-9 M retinol with 10^-8 M LADEA and/or climbazole, 72 hour", "value": "very effective at repressing keratinocyte TG1 levels"},
      {"measurement": "effect on keratinocyte differentiation (in words)", "setting": "TGase I; [1]", "value": "decreased keratinocyte differentiation"},
      {"measurement": "TGase/DNA (% Control)", "setting": "TGase I; Table 1B, 2.5 × 10^-7 M, 72 hours, 0.25 µM", "value": 7, "unit": "%"},
      {"measurement": "Mean TGase/DNA X 10^-4 ± S.D.", "setting": "TGase I; Table 1B, 2.5 × 10^-7 M, 72 hours", "value": "0.16 ± 0.11 X 10^-4"},
      {"measurement": "TGase/DNA (% Control)", "setting": "TGase I; Table 1B, 2.5 × 10^-8 M, 72 hours, 0.025 µM", "value": 55, "unit": "%"},
      {"measurement": "Mean TGase/DNA X 10^-4 ± S.D.", "setting": "TGase I; Table 1B, 2.5 × 10^-8 M, 72 hours", "value": "1.34 ± 0.40 X 10^-4"},
      {"measurement": "TGase/DNA (% Control)", "setting": "TGase I; Table 1B, 2.5 × 10^-9 M, 72 hours, 0.0025 µM", "value": 77, "unit": "%"},
      {"measurement": "Mean TGase/DNA X 10^-4 ± S.D.", "setting": "TGase I; Table 1B, 2.5 × 10^-9 M, 72 hours", "value": "1.87 ± 0.49 X 10^-4"},
      {"measurement": "TGase/DNA (% Control)", "setting": "TGase I; Table 2B and Example 2B text, 2.5×10^-8 M RA or retinol, 10^-8 M LAMEA, 10^-8 M bifonazole where named, 72 hour", "value": 13, "unit": "%"},
      {"measurement": "mean TGase/DNA × 10^-4 ± s.d", "setting": "TGase I; Table 2B, 2.5 × 10^8 M [sic] RA or ROH, 10^8 M LA-MEA, 10^8 M Bifonazole where named, 72 hour, n = 6", "value": "0.017 ± 0.010 × 10^-4"},
      {"measurement": "TGase/DNA (% Control)", "setting": "TGase I; Table 3B and Example 3B, 2.5×10^-9 M RA or ROH, with 10^-8 M LADEA and/or 10^-8 M climbazole where named, 72 hour", "value": 55, "unit": "%"},
      {"measurement": "TGase/DNA (% Control)", "setting": "TGase I; Table 3B and Example 3B, RA at 2.5×10^-7 M (table: 2.5 × 10^7 M), 72 hour, 0.25 µM", "value": 29, "unit": "%"},
      {"measurement": "mean TGase/DNA × 10^4 ± s.d", "setting": "TGase I; 2.5 × 10^9 M [sic] RA or ROH, with 10^8 M LA-DEA and/or 10^8 M Climbazole where named, 72 hour, n = 6", "value": "0.84 ± 0.59 × 10^4"},
      {"measurement": "mean TGase/DNA × 10^4 ± s.d", "setting": "TGase I; RA at 2.5 × 10^7 M [sic], 72 hour, n = 6", "value": "0.44 ± 0.71 × 10^4"}
    ]}
  ]
}
